Assay results taken from patent US20020169157A1, “Selective protein tyrosine phosphatatase inhibitors” (priority 2000, published 2002).

Experiments:
[1] = target: T1, CDC25c (fusion with glutathione-S-transferase) (Homo sapiens, UniProt P30307); assay: Inhibition constant determination, selectivity panel: Cdc25c (pNPP hydrolysis); format: biochemical; details: competitive Ki, pNPP substrate; read-out: Phosphatase Inhibition Constants (Kic) Cdc25c
T1 construct: GST (glutathione-S-transferase); made in house; host or cells: E. coli
T1 sequence (P30307 1-473): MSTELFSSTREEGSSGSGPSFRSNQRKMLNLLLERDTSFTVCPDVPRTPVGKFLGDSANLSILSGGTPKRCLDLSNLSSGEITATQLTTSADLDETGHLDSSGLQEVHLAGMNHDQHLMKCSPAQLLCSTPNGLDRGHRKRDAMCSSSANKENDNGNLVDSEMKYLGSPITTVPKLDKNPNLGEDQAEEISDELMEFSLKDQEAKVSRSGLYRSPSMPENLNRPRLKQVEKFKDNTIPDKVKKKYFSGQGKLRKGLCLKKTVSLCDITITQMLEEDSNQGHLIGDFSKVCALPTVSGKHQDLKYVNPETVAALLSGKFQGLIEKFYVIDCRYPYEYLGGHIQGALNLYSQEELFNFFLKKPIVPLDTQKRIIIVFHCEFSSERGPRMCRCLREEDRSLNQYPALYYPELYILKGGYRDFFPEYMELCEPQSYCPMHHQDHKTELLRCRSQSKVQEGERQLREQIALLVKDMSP
Method: (§1) Protein tyrosine phosphatase 1B activity was determined by measuring the rate of hydrolysis of a surrogate substrate, p-nitrophenyl phosphate (aka pNPP, C1907 Sigma, St. Louis, Mo.). The assay was carried out at room temperature in 96 well polypropylene or polyethylene plates in a total volume of 100 μL per well. Appropriate dilutions of the compounds were made in DMSO and then diluted ten fold with water. […] The reaction was initiated by adding 50 μL of diluted PTP1B diluted in 2× assay buffer containing 50 mM HEPES (pH=7.5), 300 mM NaCl and 0.2 mg/mL BSA. The phosphatase activity results in the formation of the colored product p-nitrophenol (pNP) which was continuously monitored at 405 nm every 30 seconds for 15 minutes using an appropriate plate reader. The absorbance at 405 nm was converted to nanomoles of pNP using a standard curve and the initial rate of pNP formation was calculated. […] The ratio of the apparent Km/Vmax vs. inhibitor concentration was plotted and the competitive Ki was calculated by linear regression to be the negative x-intercept. The uncompetitve Ki was similarly calculated from the x-intercept of the plot of the reciprocal of the apparent Vmax versus the inhibitor concentration.
(§2) The Kic and Kiu values are calculated as described for PTP1B. […]

PP2B = target: T2, PP2B (Bos taurus, UniProt P48452); assay: Inhibition constant determination, selectivity panel: PP2B (pNPP hydrolysis); format: biochemical, Bovine; details: competitive Ki, pNPP substrate, TRIS-HCl pH 8.6 buffer; read-out: Phosphatase Inhibition Constants (Kic) PP2B
T2 construct: purchased Sigma C1907
T2 sequence (P63099 2-170 partner limits assumed, other chains not shown): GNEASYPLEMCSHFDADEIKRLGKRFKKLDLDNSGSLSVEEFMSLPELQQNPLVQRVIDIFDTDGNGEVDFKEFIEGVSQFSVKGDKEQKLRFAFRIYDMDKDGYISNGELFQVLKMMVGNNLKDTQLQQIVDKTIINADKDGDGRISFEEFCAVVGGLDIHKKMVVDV
Method: (§3) Protein tyrosine phosphatase 1B activity was determined by measuring the rate of hydrolysis of a surrogate substrate, p-nitrophenyl phosphate (aka pNPP, C1907 Sigma, St. Louis, Mo.). The assay was carried out at room temperature in 96 well polypropylene or polyethylene plates in a total volume of 100 μL per well. Appropriate dilutions of the compounds were made in DMSO and then diluted ten fold with water. […] The reaction was initiated by adding 50 μL of diluted PTP1B diluted in 2× assay buffer containing 50 mM HEPES (pH=7.5), 300 mM NaCl and 0.2 mg/mL BSA. The phosphatase activity results in the formation of the colored product p-nitrophenol (pNP) which was continuously monitored at 405 nm every 30 seconds for 15 minutes using an appropriate plate reader. The absorbance at 405 nm was converted to nanomoles of pNP using a standard curve and the initial rate of pNP formation was calculated. […] The ratio of the apparent Km/Vmax vs. inhibitor concentration was plotted and the competitive Ki was calculated by linear regression to be the negative x-intercept. The uncompetitve Ki was similarly calculated from the x-intercept of the plot of the reciprocal of the apparent Vmax versus the inhibitor concentration. […]
as §2

CD45 = target: T3, CD45 (Homo sapiens, UniProt P08575); assay: Inhibition constant determination, selectivity panel: CD45 (pNPP hydrolysis); format: biochemical; details: competitive Ki, pNPP substrate; read-out: Phosphatase Inhibition Constants (Kic) CD45
T3 construct: purchased Biomol Research Laboratories SE-135
T3 sequence (P08575 609-1306 limits assumed): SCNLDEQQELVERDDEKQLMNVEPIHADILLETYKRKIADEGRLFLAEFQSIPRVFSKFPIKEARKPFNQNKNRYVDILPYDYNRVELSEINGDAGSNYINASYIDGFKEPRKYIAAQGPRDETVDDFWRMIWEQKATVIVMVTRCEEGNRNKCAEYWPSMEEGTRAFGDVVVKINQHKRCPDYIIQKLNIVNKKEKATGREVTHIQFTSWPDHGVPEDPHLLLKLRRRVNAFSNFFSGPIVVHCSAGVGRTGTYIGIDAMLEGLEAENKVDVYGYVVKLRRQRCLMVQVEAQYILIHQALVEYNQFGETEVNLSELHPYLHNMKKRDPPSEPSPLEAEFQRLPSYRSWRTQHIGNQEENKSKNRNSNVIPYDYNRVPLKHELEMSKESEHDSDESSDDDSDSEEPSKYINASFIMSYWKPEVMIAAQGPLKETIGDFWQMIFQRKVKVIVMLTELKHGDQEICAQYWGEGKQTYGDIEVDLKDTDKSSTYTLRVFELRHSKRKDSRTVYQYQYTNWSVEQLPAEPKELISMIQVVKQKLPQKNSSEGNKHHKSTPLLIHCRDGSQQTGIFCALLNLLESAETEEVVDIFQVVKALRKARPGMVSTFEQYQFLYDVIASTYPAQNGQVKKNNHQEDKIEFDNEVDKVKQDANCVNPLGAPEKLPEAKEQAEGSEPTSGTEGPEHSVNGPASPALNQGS
Method: as §3, §2

SHP-2 (full length) = target: T4, SHP-2 (full length) (Homo sapiens, UniProt Q06124); assay: Inhibition constant determination, selectivity panel: SHP-2 (pNPP hydrolysis); format: biochemical; details: competitive Ki, pNPP substrate; read-out: Phosphatase Inhibition Constants (Kic) SHP-2
T4 construct: SHP-2 (full length) was expressed in from E. coli; made in house; host or cells: E. coli
T4 sequence (Q06124 1-593): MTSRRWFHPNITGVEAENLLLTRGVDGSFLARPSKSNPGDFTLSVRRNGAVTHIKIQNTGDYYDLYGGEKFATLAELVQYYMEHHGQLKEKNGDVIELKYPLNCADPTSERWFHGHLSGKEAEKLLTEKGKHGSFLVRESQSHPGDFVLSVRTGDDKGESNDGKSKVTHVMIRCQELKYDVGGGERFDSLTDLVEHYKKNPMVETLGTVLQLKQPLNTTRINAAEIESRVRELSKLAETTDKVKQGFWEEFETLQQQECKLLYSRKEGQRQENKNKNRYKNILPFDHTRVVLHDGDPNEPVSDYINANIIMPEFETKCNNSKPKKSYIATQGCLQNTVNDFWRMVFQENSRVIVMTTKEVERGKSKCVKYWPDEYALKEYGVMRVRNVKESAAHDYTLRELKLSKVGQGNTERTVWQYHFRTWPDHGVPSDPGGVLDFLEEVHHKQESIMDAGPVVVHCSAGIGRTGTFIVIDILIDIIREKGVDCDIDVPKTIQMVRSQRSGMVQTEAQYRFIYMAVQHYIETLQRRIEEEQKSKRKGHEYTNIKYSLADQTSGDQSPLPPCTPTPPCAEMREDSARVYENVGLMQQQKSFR
Method: as §1, §2

LAR = target: T5, LAR (Homo sapiens, UniProt P10586); assay: Inhibition constant determination, selectivity panel: LAR (pNPP hydrolysis); format: biochemical; details: competitive Ki, pNPP substrate; read-out: Phosphatase Inhibition Constants (Kic) LAR
T5 construct: purchased New England Biolabs P0750L
T5 sequence (P10586 1301-1639 limits assumed): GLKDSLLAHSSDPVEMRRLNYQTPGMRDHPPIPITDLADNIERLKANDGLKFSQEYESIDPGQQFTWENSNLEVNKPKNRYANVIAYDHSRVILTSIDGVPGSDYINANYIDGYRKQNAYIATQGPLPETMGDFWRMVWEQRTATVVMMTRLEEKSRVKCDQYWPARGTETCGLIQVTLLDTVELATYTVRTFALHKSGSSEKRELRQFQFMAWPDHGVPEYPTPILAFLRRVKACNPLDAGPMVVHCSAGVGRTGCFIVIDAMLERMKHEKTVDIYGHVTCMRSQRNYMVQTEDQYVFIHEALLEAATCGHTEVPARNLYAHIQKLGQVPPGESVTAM
Method: as §3, §2

TC-PTP = target: T6, TC-PTP (Homo sapiens, UniProt P17706); assay: Inhibition constant determination, selectivity panel: TCPTP (pNPP hydrolysis); format: biochemical; details: for Ki: competitive Ki, pNPP substrate, +/− S.D., read-out: Phosphatase Inhibition Constants (Kic) TC-PTP; for selective for PTP1B over TCPTP: from Kic values of Table 1
T6 construct: chromatography of TCPTP (amino acid residues 1-283) was on Q-Sepharose-FF
T6 sequence (P17706 1-283): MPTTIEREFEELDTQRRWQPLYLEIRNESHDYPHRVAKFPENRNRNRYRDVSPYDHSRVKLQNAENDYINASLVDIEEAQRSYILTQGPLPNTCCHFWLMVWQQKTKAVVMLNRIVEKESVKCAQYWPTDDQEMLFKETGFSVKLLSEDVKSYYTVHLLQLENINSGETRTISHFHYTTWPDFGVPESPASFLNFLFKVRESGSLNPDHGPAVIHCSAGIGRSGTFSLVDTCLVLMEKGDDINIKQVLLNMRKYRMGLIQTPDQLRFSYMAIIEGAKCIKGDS
Method: Protein tyrosine phosphatase 1B activity was determined by measuring the rate of hydrolysis of a surrogate substrate, p-nitrophenyl phosphate (aka pNPP, C1907 Sigma, St. Louis, Mo.). The assay was carried out at room temperature in 96 well polypropylene or polyethylene plates in a total volume of 100 μL per well. Appropriate dilutions of the compounds were made in DMSO and then diluted ten fold with water. […] The reaction was initiated by adding 50 μL of diluted PTP1B diluted in 2× assay buffer containing 50 mM HEPES (pH=7.5), 300 mM NaCl and 0.2 mg/mL BSA. The phosphatase activity results in the formation of the colored product p-nitrophenol (pNP) which was continuously monitored at 405 nm every 30 seconds for 15 minutes using an appropriate plate reader. The absorbance at 405 nm was converted to nanomoles of pNP using a standard curve and the initial rate of pNP formation was calculated. For each concentration of test compound (inhibitor) or DMSO control, the initial rates are used to fit the rectangular hyperbola of Michaelis-Menten by non-linear regression analysis (GraphPad Software Prism 3.0). The ratio of the apparent Km/Vmax vs. inhibitor concentration was plotted and the competitive Ki was calculated by linear regression to be the negative x-intercept. The uncompetitve Ki was similarly calculated from the x-intercept of the plot of the reciprocal of the apparent Vmax versus the inhibitor concentration.
TCPTP used was either obtained commercially (catalog#752L New England Biolabs, 32 Tozer Rd, Beverly, Mass.) or as described for PTP1B. The purification of TCPTP differed from the purification of PTP1b in that chromatography of TCPTP (amino acid residues 1-283) was on Q-Sepharose-FF (Amersham Pharmacia Biotech) in 50 mM TRIS-HC1, pH 7.5, 2 mM DTT, 10% (v/v) glycerol, and was eluted with a 3 CV gradient of 0-300 mM NaCl in the same buffer. Fractions which contained TCPTP were selected and pooled based on SDS-PAGE. They were dialyzed versus 40 mM sodium phosphate, pH 7.5, 1 M ammonium sulfate, 10% (v/v) glycerol, 2 mM DTT, 1 mM sodium azide, applied to Phenyl Sepharose FF (Amersham Pharmacia Biotech), washed with 2.5 CV of the same buffer, and eluted with a 7 CV gradient of 1M to 0M NaCl in the same buffer. Fractions were assayed, pooled, frozen and stored as described for PTP1B.
The Kic and Kiu values are calculated as described for PTP1B. The assays were performed as described for PTP-1B except for the following changes. All the phosphatases except PP2B use the same 2× assay buffer as PTP1B. […] The concentrations of pNPP present in 40 ul were the same for TCPTP, CD45, LAR and PTP1B.

[2] = target: T7, protein tyrosine phosphatase 1B (PTP1B, amino acid residues 1-321) (Homo sapiens, UniProt P18031); assay: Inhibition constant determination for protein tyrosine phosphatase 1B (pNPP hydrolysis); format: biochemical; details: competitive Ki, pNPP substrate, +/− S.D.; read-out: Phosphatase Inhibition Constants (Kic) PTP1B
T7 construct: PTP1B, amino acid residues 1-321; made in house; host or cells: E. coli BL21 (DE3)
T7 sequence (P18031 1-321): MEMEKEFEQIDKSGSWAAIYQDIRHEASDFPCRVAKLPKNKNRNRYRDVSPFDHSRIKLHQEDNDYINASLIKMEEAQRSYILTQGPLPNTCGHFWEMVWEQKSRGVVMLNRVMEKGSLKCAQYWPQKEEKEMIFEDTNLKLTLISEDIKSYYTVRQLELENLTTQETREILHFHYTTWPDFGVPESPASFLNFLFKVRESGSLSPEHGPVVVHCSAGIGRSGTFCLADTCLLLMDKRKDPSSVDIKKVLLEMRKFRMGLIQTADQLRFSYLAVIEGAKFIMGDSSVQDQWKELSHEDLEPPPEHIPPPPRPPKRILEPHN
Method: Protein tyrosine phosphatase 1B activity was determined by measuring the rate of hydrolysis of a surrogate substrate, p-nitrophenyl phosphate (aka pNPP, C1907 Sigma, St. Louis, Mo.). The assay was carried out at room temperature in 96 well polypropylene or polyethylene plates in a total volume of 100 μL per well. Appropriate dilutions of the compounds were made in DMSO and then diluted ten fold with water. […] The reaction was initiated by adding 50 μL of diluted PTP1B diluted in 2× assay buffer containing 50 mM HEPES (pH=7.5), 300 mM NaCl and 0.2 mg/mL BSA. […] For each concentration of test compound (inhibitor) or DMSO control, the initial rates are used to fit the rectangular hyperbola of Michaelis-Menten by non-linear regression analysis (GraphPad Software Prism 3.0). The ratio of the apparent Km/Vmax vs. inhibitor concentration was plotted and the competitive Ki was calculated by linear regression to be the negative x-intercept. The uncompetitve Ki was similarly calculated from the x-intercept of the plot of the reciprocal of the apparent Vmax versus the inhibitor concentration.

SMILES | Ki [1] [µM] | Ki (PP2B) [µM] | Ki (CD45) [µM] | Ki (SHP-2 (full length)) [µM] | Ki (LAR) [µM] | Ki (TC-PTP) [µM] | selective for PTP1B over TCPTP (TC-PTP) | Ki [2] [µM]
CCc1cc(C[C@H](NC(C)=O)C(=O)NCCCCC(=O)N[C@@H](CCSC)C(=O)O)ccc1N(C(=O)C(=O)O)c1ccccc1C(=O)O [Example 3, N-{5-[(N-acetyl-4-[(carboxycarbonyl)(2-carboxyphenyl)amino]-3-ethylphenylalanyl)amino]pentanoyl}-L-methionine] | > 200 | > 200 | > 200 | 17 | 5 |  |  | 
CCc1cc(C[C@H](NC(C)=O)C(=O)NCCCCOc2cccc(O)c2C(=O)OC)ccc1N(C(=O)C(=O)O)c1ccccc1C(=O)O [Example 13, Methyl 2-{4-[(N-acetyl-4-[(carboxycarbonyl)(2-carboxyphenyl)amino]-3-ethylphenylalanyl)amino]butoxy}-6-hydroxybenzoate] | > 200 | > 200 | > 200 | 14.2 | 4.6 | 0.57 |  | 
COC(=O)c1c(O)cccc1OCCCCNC(=O)CCc1ccc(NC(=O)C(=O)O)c(C(=O)O)c1 [Example 52, 2-[(carboxycarbonyl)amino]-5-[3-({4-[3-hydroxy-2-(methoxycarbonyl)phenoxy]butyl}amino)-3-oxopropyl]benzoic acid] |  |  |  |  |  | 38.2 | at least 14 fold | 2.7
COC(=O)c1c(O)cccc1OCCCCNC(=O)[C@H](Cc1ccc(NC(=O)C(=O)O)cc1)NC(=O)OC(C)(C)C [Example 45, Methyl 2-(4-{[4-(carboxycarbonyl)amino-N-(tert-butoxycarbonyl)phenylalanyl]amino}butoxy)-6-hydroxybenzoate] |  |  |  |  |  | 141 |  | 
CCC(CN(C(=O)C(=O)O)c1ccc(C[C@H](NC(=O)OC(C)(C)C)C(=O)NCCCCOc2cccc(O)c2C(=O)OC)cc1)C(=O)O (stereo partly drawn) [Example 36, Methyl 2-(4-{[N-(tert-butoxycarbonyl)-4-[(2-carboxybutyl)(carboxycarbonyl)amino]phenylalanyl]amino}butoxy)-6-hydroxybenzoate] |  |  |  |  |  | 7.9 | at least 6 fold | 1.3
